ChEMBL document CHEMBL3132779, “Design, synthesis and biological evaluation of imidazo[1,5-a]pyridinePBD conjugates as potential DNA-directed alkylating agents” (Medchemcomm, 2013)
Activity calls are given as the source filed them. The rule behind the calls is not given here.

How the values were obtained:
MCF7 [1] = test: Cell cycle arrest in human MCF7 cells assessed as accumulation at G2/M phase at 4 uM after 24 hrs by propidium iodide staining-based flow cytometric analysis (reference value: 27.93%); format: functional
MCF7 [2] = test: Cell cycle arrest in human MCF7 cells assessed as accumulation at G0 phase at 4 uM after 24 hrs by propidium iodide staining-based flow cytometric analysis (reference value: 3.36%); format: functional
MCF7 [3] = test: Cell cycle arrest in human MCF7 cells assessed as accumulation at G1 phase at 4 uM after 24 hrs by propidium iodide staining-based flow cytometric analysis (reference value: 56.48%); format: functional
MCF7 [4] = test: Cell cycle arrest in human MCF7 cells assessed as accumulation at G1 phase at 2 uM after 24 hrs by propidium iodide staining-based flow cytometric analysis (reference value: 56.48%); format: functional
MCF7 [5] = test: Cytotoxicity against human MCF7 cells assessed as reduction cell viability after 24 hrs by MTT assay; format: functional, cell-based; details: MCF7, 24 h
MCF7 [6] = test: Cell cycle arrest in human MCF7 cells assessed as accumulation at S phase at 4 uM after 24 hrs by propidium iodide staining-based flow cytometric analysis (reference value: 12.23%); format: functional
DNA = test: Binding affinity to calf thymus DNA assessed as change in melting temperature at 1:5 drug/DNA ratio at 37 degC after 18 hrs by spectrophotometry; format: nucleic-acid assay; details: Bos taurus
MCF7 [7] = test: Cell cycle arrest in human MCF7 cells assessed as accumulation at S phase at 2 uM after 24 hrs by propidium iodide staining-based flow cytometric analysis (reference value: 12.23%); format: functional
MCF7 [8] = test: Cell cycle arrest in human MCF7 cells assessed as accumulation at G2/M phase at 2 uM after 24 hrs by propidium iodide staining-based flow cytometric analysis (reference value: 27.93%); format: functional
MCF7 [9] = test: Cell cycle arrest in human MCF7 cells assessed as accumulation at G0 phase at 2 uM after 24 hrs by propidium iodide staining-based flow cytometric analysis (reference value: 3.36%); format: functional
MCF7 [10] = test: Induction of apoptosis in human MCF7 cells assessed as increase in P21 tumor suppressor protein expression at 4 uM after 24 hrs by Western blot analysis; format: functional, cell-based
MCF7 [11] = test: Induction of apoptosis in human MCF7 cells assessed as increase in P53 tumor suppressor protein expression at 4 uM after 24 hrs by Western blot analysis; format: functional, cell-based
MCF7 [12] = test: Induction of apoptosis in human MCF7 cells assessed as decrease in PARP protein expression at 4 uM after 24 hrs by Western blot analysis; format: functional, cell-based
MCF7 [13] = test: Induction of apoptosis in human MCF7 cells assessed as increase in active caspase 9 at 4 uM after 24 hrs by Western blot analysis; format: functional, cell-based
MCF7 [14] = test: Induction of apoptosis in human MCF7 cells assessed as decrease in cyclin D1 expression at 4 uM after 24 hrs by Western blot analysis; format: functional, cell-based
MCF7 [15] = test: Induction of apoptosis in human MCF7 cells assessed as increase in P53 tumor suppressor protein expression at 4 uM after 24 hrs by ELISA; format: functional, cell-based
MCF7 [16] = test: Induction of DNA in human MCF7 cells assessed as increase in phosphorylated gamma-H2AX foci formation measured by immunoflourosence microscopy relative to control; format: functional

SMILES	Activity (MCF7 [1]) [%]	Activity (MCF7 [2]) [%]	Activity (MCF7 [3]) [%]	Activity (MCF7 [4]) [%]	IC50 (MCF7 [5]) [µM]	Activity (MCF7 [6]) [%]	ΔTm (DNA) [°C]	Activity (MCF7 [7]) [%]	Activity (MCF7 [8]) [%]	Activity (MCF7 [9]) [%]	Activity (MCF7 [10])	Activity (MCF7 [11])	inhibition (MCF7 [12])	Activity (MCF7 [13])	inhibition (MCF7 [14])	Activity (MCF7 [15])	Activity (MCF7 [16]) [%]
COc1cc2c(cc1OCCCCCN1CCN(C(=O)c3nc(-c4ccccc4)n4ccccc34)CC1)N=C[C@@H]1CCCN1C2=O	30.74	7.6	51.6	49.16	4.16	10	9	9.84	36.5	4.49							
COc1cc2c(cc1OCCCCN1CCN(C(=O)c3nc(-c4ccc(C(F)(F)F)cc4)n4ccccc34)CC1)N=C[C@@H]1CCCN1C2=O	18.71	15.19	57.32	42.94	3.26	8.78	10	12.14	41.29	3.64	Active	Active	Active	Active	Active	Active	
O=C(O)c1nc(-c2ccc(C(F)(F)F)cc2)n2ccccc12							0.3										
COc1ccc(-c2nc(C(=O)N3CCN(CCCCOc4cc5c(cc4OC)C(=O)N4CCC[C@H]4C=N5)CC3)c3ccccn23)cc1	22.9	7.01	59.03	51.08	4.17	14.04	9.9	9.89	34.52	4.51							
COc1cc2c(cc1O)N=C[C@@H]1CCCN1C2=O	26.83	5.33	54.08	53.76	5	13.76	0.7	16.13	27.28	2.83	Active	Active				Active	
COc1cc2c(cc1OCCCCCCN1CCN(C(=O)c3nc(-c4ccccc4)n4ccccc34)CC1)N=C[C@@H]1CCCN1C2=O	20.15	7.79	55.54	43.15	3.74	16.52	8	10.52	39.25	4.08							
COc1cc2c(cc1OCCCCCN1CCN(C(=O)c3nc(-c4ccc(C(F)(F)F)cc4)n4ccccc34)CC1)N=C[C@@H]1CCCN1C2=O	25.32	17.13	49.66	44.41	3.16	6.9	10.2	8.48	41.41	5.7	Active	Active	Active	Active	Active	Active	80
COc1ccc(-c2nc(C(=O)N3CCN(CCCOc4cc5c(cc4OC)C(=O)N4CCC[C@H]4C=N5)CC3)c3ccccn23)cc1	13.27	6	66.92	45.35	6	13.81	8.8	19.65	31.44	3.56							
COc1cc2c(cc1OCCCN1CCN(C(=O)c3nc(-c4ccc(C(F)(F)F)cc4)n4ccccc34)CC1)N=C[C@@H]1CCCN1C2=O	14.71	6.23	69.36	52.63	5.74	9.7	8.8	10.34	32.52	4.52							
COc1cc2c(cc1OCCCCN1CCN(C(=O)c3nc(-c4ccccc4)n4ccccc34)CC1)N=C[C@@H]1CCCN1C2=O	20.95	5.47	63.74	48.87	7.18	9.85	8.9	17.03	31.3	2.8							
O=C(c1nc(-c2ccc(C(F)(F)F)cc2)n2ccccc12)N1CCNCC1							2.5										
COc1cc2c(cc1OCCCN1CCN(C(=O)c3nc(-c4ccccc4)n4ccccc34)CC1)N=C[C@@H]1CCCN1C2=O	30.14	5.23	54.44	55.54	7.21	10.19	8.9	11.86	28.35	4.26							
COc1cc2c(cc1OCCCCCCN1CCN(C(=O)c3nc(-c4ccc(C(F)(F)F)cc4)n4ccccc34)CC1)N=C[C@@H]1CCCN1C2=O	30.79	7.14	52.13	52.92	4.28	9.94	8.7	9.33	34.09	3.66							
COc1ccc(-c2nc(C(=O)N3CCN(CCCCCOc4cc5c(cc4OC)C(=O)N4CCC[C@H]4C=N5)CC3)c3ccccn23)cc1	30.3	6.07	53.22	52.76	5.67	10.42	9.9	10.06	31.61	5.57							
COc1ccc(-c2nc(C(=O)N3CCN(CCCCCCOc4cc5c(cc4OC)C(=O)N4CCC[C@H]4C=N5)CC3)c3ccccn23)cc1	23.56	13.33	54.67	41.06	3.68	8.44	8.9	13.2	40.53	5.39							
